Drawing on patent US20260356810A1, “NOVEL PIPERAZINE-BASED SULFONAMIDES AND THEIR USE AS NEUROPROTECTIVE AND/OR NEURORESTORATIVE AGENTS” (GENECODE, priority 2022, published 2026), this text covers EC50 for 27 compounds.

Molecules are shown by their SMILES. Where only a bound is given, the exact number is not on record here.

T1 sequence (P56159 25-429 limits assumed): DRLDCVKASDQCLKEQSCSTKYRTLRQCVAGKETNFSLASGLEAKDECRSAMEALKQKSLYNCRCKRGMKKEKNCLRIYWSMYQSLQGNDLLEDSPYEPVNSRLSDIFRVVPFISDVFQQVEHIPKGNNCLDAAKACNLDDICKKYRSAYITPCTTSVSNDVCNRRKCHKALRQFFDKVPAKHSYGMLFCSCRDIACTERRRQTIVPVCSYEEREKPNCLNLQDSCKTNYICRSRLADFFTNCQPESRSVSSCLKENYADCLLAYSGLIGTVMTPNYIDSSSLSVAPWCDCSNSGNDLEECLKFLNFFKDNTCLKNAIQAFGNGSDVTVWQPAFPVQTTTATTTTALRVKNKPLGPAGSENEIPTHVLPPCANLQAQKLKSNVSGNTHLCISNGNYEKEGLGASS
T1 sequence (P07949 29-1114 partner): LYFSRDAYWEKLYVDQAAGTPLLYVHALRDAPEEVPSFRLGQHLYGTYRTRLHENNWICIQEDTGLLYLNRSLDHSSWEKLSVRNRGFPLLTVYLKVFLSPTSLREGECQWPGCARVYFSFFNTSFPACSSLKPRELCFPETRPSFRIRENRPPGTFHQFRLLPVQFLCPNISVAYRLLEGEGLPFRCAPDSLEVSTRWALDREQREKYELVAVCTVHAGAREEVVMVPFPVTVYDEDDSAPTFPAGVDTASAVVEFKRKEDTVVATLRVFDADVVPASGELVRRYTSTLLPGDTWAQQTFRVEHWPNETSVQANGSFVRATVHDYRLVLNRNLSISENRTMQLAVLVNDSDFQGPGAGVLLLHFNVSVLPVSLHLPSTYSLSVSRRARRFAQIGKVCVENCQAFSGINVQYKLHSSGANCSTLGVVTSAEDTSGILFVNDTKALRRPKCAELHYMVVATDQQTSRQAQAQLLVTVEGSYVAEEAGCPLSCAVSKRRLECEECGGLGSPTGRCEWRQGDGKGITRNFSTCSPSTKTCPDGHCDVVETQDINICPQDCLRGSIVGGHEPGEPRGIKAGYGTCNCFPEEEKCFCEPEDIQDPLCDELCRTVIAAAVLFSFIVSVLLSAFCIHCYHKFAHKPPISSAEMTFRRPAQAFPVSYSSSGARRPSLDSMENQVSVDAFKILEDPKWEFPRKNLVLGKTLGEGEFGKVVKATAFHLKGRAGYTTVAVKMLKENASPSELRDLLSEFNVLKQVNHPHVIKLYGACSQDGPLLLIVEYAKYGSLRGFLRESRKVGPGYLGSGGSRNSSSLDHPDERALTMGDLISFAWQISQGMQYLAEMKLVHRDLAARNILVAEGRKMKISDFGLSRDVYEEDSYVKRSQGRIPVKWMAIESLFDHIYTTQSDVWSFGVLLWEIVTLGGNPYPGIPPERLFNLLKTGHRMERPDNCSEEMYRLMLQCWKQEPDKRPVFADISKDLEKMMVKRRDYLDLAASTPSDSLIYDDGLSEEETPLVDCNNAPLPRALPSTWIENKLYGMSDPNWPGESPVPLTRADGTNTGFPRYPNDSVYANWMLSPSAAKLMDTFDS

The first assay addresses T1, GFRα1-RET (Homo sapiens, UniProt P56159).
T1 construct: expressed in transfected cells; host or cells: MG87 murine fibroblast
The experiment in a line: Luciferase assay: activation of Elk1 signaling in reporter-gene cells expressing GFRα1-RET (MG87 murine fibroblast stably transfected with PathDetect Elk-1, GFRα1, and RET). The assay is classed as cell-based. As to conditions: Table 4; MG87 murine fibroblasts with PathDetect Elk-1, GFRα1, RET; 6 concentrations, duplicate, two times independently; agonist/activator activity; read-out: Luciferase Assay EC50. On the procedure:
The purpose of this experiment was to evaluate the GFRα1-RET activity of the compounds 001-060 according to the invention.
The compounds were tested for their activating activity of Elk1 signaling using the previously developed reporter-gene-based system in cells expressing GFRα1-RET (MG87 murine fibroblast stably transfected with PathDetect Elk-1, GFRα1, and RET) disclosed in Sidorova, Y. A. et al.: “Persephin signaling through GFRα1: The potential for the treatment of Parkinson's disease.” Molecular and Cellular Neuroscience, July 2010, Vol. 44, pp. 223-232. DOI: 10.1016/j.mcn.2010.03.009. For EC50 determination, a dose-response test was performed using 6 concentrations of each tested compound. Dose-response curves were fitted using the sigmoidal dose-response (variable slope) analysis in GraphPad Prism program (Graph Pad Inc) and EC50 of agonist/activator activity was calculated. Dose-response experiments were all performed in duplicate, two times independently.
The compounds were tested for their activating activity of Elk1 signaling using the same materials and methods than for the compounds according to the invention (Example 2 herein, section “Materials and methods”).
What is called EC50 is the concentration that produces a half-maximal response. For the compound `COc1ccc(S(=O)(=O)N2CCC(c3ccc(F)cc3)CC2)cc1N1CCN(C(=O)c2ccc(F)cc2Cl)CC1` [Compound 050, (2-chloro-4-fluoro-phenyl)-[4-[5-[[4-(4-fluorophenyl)-1-piperidyl]sulfonyl]-2-methoxy-phenyl]piperazin-1-yl]methanone], the EC50 was less than 1 µM.

As for `COc1ccc(S(=O)(=O)N2CCN(CCc3ccc(Cl)cc3)CC2)cc1N1CCN(C(=O)c2ccc(F)cc2Cl)CC1` [Compound 051, (2-chloro-4-fluoro-phenyl)-[4-[5-[4-[2-(4-chlorophenyl)ethyl]piperazin-1-yl]sulfonyl-2-methoxy-phenyl]piperazin-1-yl]methanone], the EC50 fell in the range of 1 to 5 µM.

Consider `COc1ccc(S(=O)(=O)N2CC3CN(Cc4ccccc4)CC3C2)cc1N1CCN(C(=O)c2ccc(F)cc2Cl)CC1` (stereo not shown) [Compound 040, [4-[5-[[2-benzyl-1,3,3a,4,6,6a-hexahydropyrrolo[3,4-c]pyrrol-5-yl]sulfonyl]-2-methoxy-phenyl]piperazin-1-yl]-(2-chloro-4-fluoro-phenyl)methanone], for which the EC50 lay within 10 to 50 µM.

`COc1ccc(S(=O)(=O)N2CCN(CC(C)c3ccc(F)cc3)CC2)cc1N1CCN(C(=O)c2ccc(F)cc2Cl)CC1` (racemic) [Compound 054, (2-chloro-4-fluoro-phenyl)-[4-[2-methoxy-5-[4-[rac-(2R)-2-(4-fluorophenyl)propyl]piperazin-1-yl]sulfonyl-phenyl]piperazin-1-yl]methanone]: the EC50 was less than 1 µM.

Take `COc1ccc(S(=O)(=O)N(C)C2CCCC2)cc1N1CCN(C(=O)c2ccc(F)cc2Cl)CC1` [Compound 016, 3-[4-(2-chloro-4-fluoro-benzoyl)piperazin-1-yl]-N-cyclopentyl-4-methoxy-N-methyl-benzenesulfonamide]: the EC50 is 5 to 10 µM.

On to `CCN(CC)S(=O)(=O)c1cccc(N2CCN(C(=O)c3ccc(F)cc3C(F)(F)F)CC2)c1` [Compound 041, N,N-diethyl-3-[4-[4-fluoro-2-(trifluoromethyl)benzoyl]piperazin-1-yl]benzenesulfonamide], for which the EC50 lay in the range of 10 to 50 µM.

As to `CCCN(C)S(=O)(=O)c1ccc(OCc2ccccc2)c(N2CCN(C(=O)c3ccc(F)cc3C(F)(F)F)CC2)c1` [Compound 047, 4-benzyloxy-3-[4-[4-fluoro-2-(trifluoromethyl)benzoyl]piperazin-1-yl]-N-methyl-N-propyl-benzenesulfonamide], the EC50 lay in the range of 1 to 5 µM.

As to `COc1ccc(S(=O)(=O)N2CCC(Cc3ccccc3)C2)cc1N1CCN(C(=O)c2ccc(F)cc2Cl)CC1` (stereo not shown) [Compound 029, (2-chloro-4-fluoro-phenyl)-[4-[2-methoxy-5-[3-benzylpyrrolidin-1-yl]sulfonyl-phenyl]piperazin-1-yl]methanone], the half-maximal effective concentration (EC50) was 5 to 10 µM.

For `COc1ccc(S(=O)(=O)N2CCC(Cc3ccccc3)CC2)cc1N1CCN(C(=O)c2ncc(F)cc2Cl)CC1` [Compound 008, [4-[5-[(4-benzyl-1-piperidyl)sulfonyl]-2-methoxy-phenyl]piperazin-1-yl]-(3-chloro-5-fluoro-2-pyridyl)methanone], the EC50 fell in the range of 5 to 10 µM.

Take `COc1ccc(S(=O)(=O)N2CCC(Cc3ccccc3)CC2)cc1N1CCN(C(=O)c2cc(F)c(F)cc2Cl)CC1` [Compound 009, [4-[5-[(4-benzyl-1-piperidyl)sulfonyl]-2-methoxy-phenyl]piperazin-1-yl]-(2-chloro-4,5-difluoro-phenyl)methanone]: the EC50 is less than 1 µM.

For the compound `COc1ccc(S(=O)(=O)N(C)CC2CCC2)cc1N1CCN(C(=O)c2ccc(F)cc2Cl)CC1` [Compound 014, 3-[4-(2-chloro-4-fluoro-benzoyl)piperazin-1-yl]-N-(cyclobutylmethyl)-4-methoxy-N-methyl-benzenesulfonamide], the 50% effective concentration (EC50) was 5 to 10 µM.

As to `COc1ccc(S(=O)(=O)N2CCCC2)cc1N1CCN(C(=O)c2ccc(F)cc2Cl)CC1` [Compound 004, (2-chloro-4-fluoro-phenyl)-[4-(2-methoxy-5-pyrrolidin-1-ylsulfonyl-phenyl)piperazin-1-yl]methanone], the half-maximal effective concentration (EC50) was in the range of 1 to 5 µM.

Take `CCN(CC)S(=O)(=O)c1ccc(OC)c(N2CCN(C(=O)c3ccc(F)cc3Cl)CC2)c1` [Compound 001, 3-[4-(2-chloro-4-fluoro-benzoyl)piperazin-1-yl]-N,N-diethyl-4-methoxy-benzenesulfonamide]: the EC50 fell in the range of 5 to 10 µM.

For `CCCN(C)S(=O)(=O)c1ccc(F)c(N2CCN(C(=O)c3ccc(F)cc3C(F)(F)F)CC2)c1` [Compound 042, 4-fluoro-3-[4-[4-fluoro-2-(trifluoromethyl)benzoyl]piperazin-1-yl]-N-methyl-N-propyl-benzenesulfonamide], the EC50 lay within 1 to 5 µM.

With `COc1ccc(S(=O)(=O)N2CCCC2)cc1N1CCN(C(=O)c2ccc(Cl)cc2Cl)CC1` [Compound 003, (2,4-dichlorophenyl)-[4-(2-methoxy-5-pyrrolidin-1-ylsulfonyl-phenyl)piperazin-1-yl]methanone], the EC50 fell in the range of 10 to 50 µM.

Consider `CCCN(C)S(=O)(=O)c1cc2c(c(N3CCN(C(=O)c4ccc(F)cc4C(F)(F)F)CC3)c1)OCC2` [Compound 043, 7-[4-[4-fluoro-2-(trifluoromethyl)benzoyl]piperazin-1-yl]-N-methyl-N-propyl-2,3-dihydrobenzofuran-5-sulfonamide], for which the concentration for a half-maximal effect (EC50) is 1 to 5 µM.

Regarding `CCN(CC)S(=O)(=O)c1ccc(OC)c(N2CCN(C(=O)c3cc(F)c(F)cc3Cl)CC2)c1` [Compound 002, 3-[4-(2-chloro-4,5-difluoro-benzoyl)piperazin-1-yl]-N,N-diethyl-4-methoxy-benzenesulfonamide], the half-maximal effective concentration (EC50) was in the range of 5 to 10 µM.

On to `COc1ccc(S(=O)(=O)N2CCCC(Cc3ccccc3)C2)cc1N1CCN(C(=O)c2ccc(F)cc2Cl)CC1` (stereo not shown) [Compound 027, (2-chloro-4-fluoro-phenyl)-[4-[2-methoxy-5-[[3-benzyl-1-piperidyl]sulfonyl]phenyl]piperazin-1-yl]methanone], for which the half-maximal effective concentration (EC50) is 1 to 5 µM.

As for `COc1ccc(S(=O)(=O)N2CCC(O)(Cc3ccccc3)CC2)cc1N1CCN(C(=O)c2ccc(F)cc2Cl)CC1` [Compound 012, [4-[5-[(4-benzyl-4-hydroxy-1-piperidyl)sulfonyl]-2-methoxy-phenyl]piperazin-1-yl]-(2-chloro-4-fluoro-phenyl)methanone], the EC50 was 5 to 10 µM.

Consider `COc1ccc(S(=O)(=O)N2CCC(C(F)(F)F)CC2)cc1N1CCN(C(=O)c2ccc(F)cc2Cl)CC1` [Compound 031, (2-chloro-4-fluoro-phenyl)-[4-[2-methoxy-5-[[4-(trifluoromethyl)-1-piperidyl]sulfonyl]phenyl]piperazin-1-yl]methanone], for which the EC50 was 1 to 5 µM.

`COc1ccc(S(=O)(=O)N2CC3CCC2C3)cc1N1CCN(C(=O)c2ccc(F)cc2Cl)CC1` (stereo not shown) [Compound 036, (2-chloro-4-fluoro-phenyl)-[4-[2-methoxy-5-[[2-azabicyclo[2.2.1]heptan-2-yl]sulfonyl]phenyl]piperazin-1-yl]methanone]: the EC50 fell in the range of 10 to 50 µM.

Consider `COc1ccc(S(=O)(=O)N2CCC(OCc3ccccc3)C2)cc1N1CCN(C(=O)c2ccc(F)cc2Cl)CC1` (stereo not shown) [Compound 039, (2-chloro-4-fluoro-phenyl)-[4-[2-methoxy-5-[3-benzyloxypyrrolidin-1-yl]sulfonyl-phenyl]piperazin-1-yl]methanone], for which the concentration for a half-maximal effect (EC50) lay in the range of 1 to 5 µM.

Consider `COc1ccc(S(=O)(=O)N(C)CC2CCCCC2)cc1N1CCN(C(=O)c2ccc(F)cc2Cl)CC1` [Compound 015, 3-[4-(2-chloro-4-fluoro-benzoyl)piperazin-1-yl]-N-(cyclohexylmethyl)-4-methoxy-N-methyl-benzenesulfonamide], for which the EC50 lay within 5 to 10 µM.

Turning to `CC(C)(C)NS(=O)(=O)c1cc(Cl)c(O)c(N2CCN(C(=O)c3ccc(F)cc3Cl)CC2)c1` [Compound 058, N-tert-butyl-3-chloro-5-[4-(2-chloro-4-fluoro-benzoyl)piperazin-1-yl]-4-hydroxy-benzenesulfonamide], the EC50 was less than 1 µM.

For the compound `Cc1cc(S(=O)(=O)N2CCC(c3ccc(F)cc3)CC2)cc(N2CCN(C(=O)c3ccc(F)cc3Cl)CC2)c1O` [Compound 056, (2-chloro-4-fluoro-phenyl)-[4-[5-[[4-(4-fluorophenyl)-1-piperidyl]sulfonyl]-2-hydroxy-3-methyl-phenyl]piperazin-1-yl]methanone], the EC50 is less than 1 µM.

For the compound `CCN(CC)S(=O)(=O)c1cnc(OC)c(N2CCN(C(=O)c3ccc(F)cc3C(F)(F)F)CC2)c1` [Compound 045, N,N-diethyl-5-[4-[4-fluoro-2-(trifluoromethyl)benzoyl]piperazin-1-yl]-6-methoxy-pyridine-3-sulfonamide], the EC50 is 10 to 50 µM.

`O=C(c1ccc(F)cc1Cl)N1CCN(c2cc(S(=O)(=O)N3CCC(F)CC3)cc(Cl)c2O)CC1` [Compound 057, (2-chloro-4-fluoro-phenyl)-[4-[3-chloro-5-[(4-fluoro-1-piperidyl)sulfonyl]-2-hydroxy-phenyl]piperazin-1-yl]methanone]: the 50% effective concentration (EC50) was in the range of 1 to 5 µM.

Staying with this assay, now noted: Table 6, comparison with comparative compounds; values for 001, 009, 010 reported from Table 4; MG87 GFRα1-RET cells; read-out: Luciferase Assay EC50.
For `COc1ccc(S(=O)(=O)N2CCC(Cc3ccccc3)CC2)cc1N1CCN(C(=O)c2cc(F)c(F)cc2Cl)CC1` [Compound 009, [4-[5-[(4-benzyl-1-piperidyl)sulfonyl]-2-methoxy-phenyl]piperazin-1-yl]-(2-chloro-4,5-difluoro-phenyl)methanone], the 50% effective concentration (EC50) is less than 1 µM.

In the case of `CCN(CC)S(=O)(=O)c1ccc(OC)c(N2CCN(C(=O)c3ccc(F)cc3Cl)CC2)c1` [Compound 001, 3-[4-(2-chloro-4-fluoro-benzoyl)piperazin-1-yl]-N,N-diethyl-4-methoxy-benzenesulfonamide], the EC50 was 5 to 10 µM.

Still in this assay, the particulars now being: text statement on Table 6 results, GFRα1-RET luciferase assay; read-out: EC50.
As for `COc1ccc(S(=O)(=O)N2CCC(Cc3ccccc3)CC2)cc1N1CCN(C(=O)c2cc(F)c(F)cc2Cl)CC1` [Compound 009, [4-[5-[(4-benzyl-1-piperidyl)sulfonyl]-2-methoxy-phenyl]piperazin-1-yl]-(2-chloro-4,5-difluoro-phenyl)methanone], the half-maximal effective concentration (EC50) is less than 10 µM.

With `CCN(CC)S(=O)(=O)c1ccc(OC)c(N2CCN(C(=O)c3ccc(F)cc3Cl)CC2)c1` [Compound 001, 3-[4-(2-chloro-4-fluoro-benzoyl)piperazin-1-yl]-N,N-diethyl-4-methoxy-benzenesulfonamide], the EC50 is less than 10 µM.
